Read-outs that look alike come from different tables or passages of the source.
Key:
Experiment in all cases: Etest MIC of indicator carbapenems on MH II agar without/with PMBN
Type in all cases: cell-based
[1] = test system: Enterobacter aerogenes EA 5 (porin−); details: Klebsiella aerogenes
Summary of the method: (§1)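 MICs are read directly from Etest strips of imipenem, ertapenem or meropenem after 16–20 h at 35° C. The agar is MH II with PMBN at 0 up to ⅕ of its own MIC, inoculated by swab at 0.5 McFarland.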

E. coli SAB 108 (porin−) = details: Escherichia coli
Summary of the method: as §1

[2] = test system: K. pneumoniae 1012142 (KPC-2 producer)
Summary of the method: as §1

[3] = test system: K. pneumoniae 1204036 (membrane impermeability)
Summary of the method: as §1

[4] = test system: K. pneumoniae 1103183 (NDM producer)
Summary of the method: as §1

[5] = test system: E. cloacae 1008074 (VIM producer)
Summary of the method: as §1

[6] = test system: E. cloacae 1204056 (membrane impermeability)
Summary of the method: as §1

[7] = test system: Enterobacter aerogenes EA 27 (porin−); details: Klebsiella aerogenes, read-out: MIC
Summary of the method: as §1

[8] = test system: K. pneumoniae KP 63 (porin−); details: Klebsiella pneumoniae
Summary of the method: as §1

[9] = test system: E. cloacae 1109137 (OXA-48 producer)
Summary of the method: as §1

[10] = test system: K. pneumoniae KP 55 (porin−); details: Klebsiella pneumoniae
Summary of the method: as §1

[11] = test system: E. coli 1008078 (VIM producer)
Summary of the method: as §1

[12] = test system: E. cloacae 1204051 (membrane impermeability)
Summary of the method: as §1

[13] = test system: E. cloacae 1204153 (membrane impermeability); details: in µg/mL
Summary of the method: as §1

[14] = test system: E. cloacae 1008080 (IMP producer); details: in µg/mL
Summary of the method: as §1

[15] = test system: K. pneumoniae 1204035 (membrane impermeability); details: in µg/mL
Summary of the method: as §1

[16] = test system: E. cloacae 1204052 (membrane impermeability)
Summary of the method: as §1

## C[C@@H](O)[C@H]1C(=O)N2C(C(=O)O)=C(SCCN=CN)C[C@H]12 [IM, imipenem]
[1]; E. aerogenes EA 5 (porin−), [PMBN] 0, Table 4
  MIC: 6 µg/mL
[1]; E. aerogenes EA 5 (porin−), [PMBN] 50 μg/ml
  MIC: 4 µg/mL
[1]; E. aerogenes EA 5 (porin−), [PMBN] 100 μg/ml
  MIC: 4 µg/mL
[1]; E. aerogenes EA 5 (porin−), [PMBN] 150 μg/ml
  MIC: 4 µg/mL
[1]; E. aerogenes EA 5 (porin−), [PMBN] 200 μg/ml
  MIC: 3 µg/mL
[1]; EA 5 (porin−), [PMBN] 0, Table 2
  MIC: 4 µg/mL
[1]; EA 5 (porin−), [PMBN] MIC/5
  MIC: 2 µg/mL
[1]; EA 5 (porin−), [PMBN] MIC/8
  MIC: 2 µg/mL
[1]; EA 5 (porin−), [PMBN] MIC/10
  MIC: 2 µg/mL
E. coli SAB 108 (porin−); [PMBN] 0
  MIC: 0.75 µg/mL
E. coli SAB 108 (porin−); [PMBN] 50 μg/ml
  MIC: 0.38 µg/mL
E. coli SAB 108 (porin−); [PMBN] 100 μg/ml
  MIC: 0.25 µg/mL
E. coli SAB 108 (porin−); [PMBN] 150 μg/ml
  MIC: 0.25 µg/mL
E. coli SAB 108 (porin−); [PMBN] 200 μg/ml
  MIC: 0.19 µg/mL
[2]; [PMBN] 0, Table 4a
  MIC: > 32 µg/mL
[2]; [PMBN] 100, Table 4a
  MIC: > 32 µg/mL
[2]; [PMBN] 200, Table 4a
  MIC: > 32 µg/mL
[2]; [PMBN] 300, Table 4a
  MIC: > 32 µg/mL
[3]; [PMBN] 0, Table 4a
  MIC: 2 µg/mL
[3]; [PMBN] 100, Table 4a
  MIC: 2 µg/mL
[3]; [PMBN] 200, Table 4a
  MIC: 2 µg/mL
[3]; [PMBN] 300, Table 4a
  MIC: 1.5 µg/mL
[4]; [PMBN] 0, Table 4a
  MIC: 24 µg/mL
[4]; [PMBN] 100, Table 4a
  MIC: > 32 µg/mL
[4]; [PMBN] 200, Table 4a
  MIC: > 32 µg/mL
[4]; [PMBN] 300, Table 4a
  MIC: 6 µg/mL
[5]; [PMBN] 0, Table 4a
  MIC: 3 µg/mL
[5]; [PMBN] 100, Table 4a
  MIC: 3 µg/mL
[5]; [PMBN] 200, Table 4a
  MIC: 8 µg/mL
[5]; [PMBN] 300, Table 4a
  MIC: 6 µg/mL
[6]; [PMBN] 0, Table 4a
  MIC: 6 µg/mL
[6]; [PMBN] 100, Table 4a
  MIC: 2 µg/mL
[6]; [PMBN] 200, Table 4a
  MIC: 1.5 µg/mL
[6]; [PMBN] 300, Table 4a
  MIC: 1 µg/mL
[7]; E. aerogenes EA 27 (porin−), [PMBN] 0, Table 4
  MIC: 12 µg/mL
[7]; E. aerogenes EA 27 (porin−), [PMBN] 50 μg/ml
  MIC: 6 µg/mL
[7]; E. aerogenes EA 27 (porin−), [PMBN] 100 μg/ml
  MIC: 3 µg/mL
[7]; E. aerogenes EA 27 (porin−), [PMBN] 150 μg/ml
  MIC: 3 µg/mL
[7]; E. aerogenes EA 27 (porin−), [PMBN] 200 μg/ml
  MIC: 3 µg/mL
[7]; EA 27 (porin−), [PMBN] 0, Table 2
  MIC: 8 µg/mL
[7]; EA 27 (porin−), [PMBN] MIC/5
  MIC: 0.03 µg/mL
[7]; EA 27 (porin−), [PMBN] MIC/8
  MIC: 0.06 µg/mL
[7]; EA 27 (porin−), [PMBN] MIC/10
  MIC: 8 µg/mL
[8]; [PMBN] 0
  MIC: 0.25 µg/mL
[8]; [PMBN] 50 μg/ml
  MIC: 0.25 µg/mL
[8]; [PMBN] 100 μg/ml
  MIC: 0.125 µg/mL
[8]; [PMBN] 150 μg/ml
  MIC: 0.125 µg/mL
[8]; [PMBN] 200 μg/ml
  MIC: 0.125 µg/mL
[9]; [PMBN] 0, Table 4a
  MIC: 1.5 µg/mL
[9]; [PMBN] 100, Table 4a
  MIC: 4 µg/mL
[9]; [PMBN] 200, Table 4a
  MIC: 2 µg/mL
[9]; [PMBN] 300, Table 4a
  MIC: 1.5 µg/mL
[10]; [PMBN] 0
  MIC: 0.38 µg/mL
[10]; [PMBN] 50 μg/ml
  MIC: 0.25 µg/mL
[10]; [PMBN] 100 μg/ml
  MIC: 0.25 µg/mL
[10]; [PMBN] 150 μg/ml
  MIC: 0.25 µg/mL
[10]; [PMBN] 200 μg/ml
  MIC: 0.19 µg/mL
[11]; [PMBN] 0, Table 4a
  MIC: 0.38 µg/mL
[11]; [PMBN] 100, Table 4a
  MIC: 1.5 µg/mL
[11]; [PMBN] 200, Table 4a
  MIC: 0.75 µg/mL
[11]; [PMBN] 300, Table 4a
  MIC: 0.38 µg/mL
[12]; [PMBN] 0, Table 4a
  MIC: 1.5 µg/mL
[12]; [PMBN] 100, Table 4a
  MIC: 1.5 µg/mL
[12]; [PMBN] 200, Table 4a
  MIC: 0.75 µg/mL
[12]; [PMBN] 300, Table 4a
  MIC: 0.75 µg/mL
[13]; [PMBN] 0, Table 4a
  MIC: 4
[13]; [PMBN] 100, Table 4a
  MIC: 4
[13]; [PMBN] 200, Table 4a
  MIC: 2
[13]; [PMBN] 300, Table 4a
  MIC: 4
[14]; [PMBN] 0, Table 4a
  MIC: 1
[14]; [PMBN] 100, Table 4a
  MIC: 12
[14]; [PMBN] 200, Table 4a
  MIC: 3
[14]; [PMBN] 300, Table 4a
  MIC: 6
[15]; [PMBN] 0, Table 4a
  MIC: 1.5
[15]; [PMBN] 100, Table 4a
  MIC: 0.75
[15]; [PMBN] 200, Table 4a
  MIC: 0.5-0.75
[15]; [PMBN] 300, Table 4a
  MIC: 0.5-1
[16]; [PMBN] 0, Table 4a
  MIC: 3 µg/mL
[16]; [PMBN] 100, Table 4a
  MIC: 3 µg/mL
[16]; [PMBN] 200, Table 4a
  MIC: 2 µg/mL
[16]; [PMBN] 300, Table 4a
  MIC: 1.5 µg/mL
